From patent US9694019B2, “Compositions and methods for treating bone diseases and broken bones” (BRIGHAM YOUNG UNIVERSITY, priority 2011, dated 2017)

How the values were obtained:
[1] = system: MC3T3-E1 cells; test: Quantitative spectroscopic ALP (alkaline phosphatase) assay in MC3T3-E1 cells; format: cell-based; settings: MC3T3-E1 day 4 of differentiation, with or without 200 ng/mL rhBMP-2 and 50 μM sodium alginate; compared with CSA-90 (FIG. 4)
Description: MC3T3-E1 cells at day 4 of differentiation were treated with or without 200 ng/mL rhBMP-2 (recombinant human BMP-2), 0-50 μM CSA-90, and with or without 50 μM sodium alginate. Quantitative spectroscopic ALP (alkaline phosphatase) assays were performed in on multiple wells and normalized to viable cell number. Experimental assays were carried out twice independently. Data for this analysis is provided in FIG. 4 (from left to right 0, 0.5, 1, 5, 10, 25, and 50 μM CSA-90 were tested with or without BMP-2 and Algin).

[2] = system: quadriceps of mice; test: Ectopic bone formation in quadriceps of mice (muscle pouch model), XR and microCT; format: in vivo
Description: 10 μg rhBMP-2 was implanted into the quadriceps of mice with 0, 25 μg, or 250 μg CSA-90. A control group received 250 μg CSA-90 alone (without rhBMP-2). Bone was allowed to form ectopically over 3 weeks. Specimens were then harvested for XR (FIG. 5) and microCT (FIG. 7).
MicroCT scans were performed on all samples using a Skyscan 1174 microCT scanner. Scanning data confirmed increases in bone volume (BV) with the addition of CSA-90 (See FIG. 6).

[3] = system: primary human MSC cells; test: BMP regulation: gene expression array (SABiosciences PAHS-026) in primary human MSC cells; format: cell-based; settings: hMSC, 8 hours
Description: SABisosciences custom array plates (Cat#PAHS-026) were used to measure BMP expression. These array plates are validated for efficiency when used at recommended conditions and reagents. On day 1, primary human MSC cells were plated at 200,000 cell/well using 6-well plates with 10% FBS, Penicillin and Streptomycin 10 mL per Liter, in recommended media. Only early passages of cells were used.
On day 2, cells were treated with compounds dissolved in DMSO diluted 1:1000 or more to avoid solvent effects. A non-treated negative control group was evaluated (FIG. 1, “Control Group”) along with a positive control group containing PS1 at 0.1 μM (FIG. 1, “Group 1”). Final testing concentration for CSA-90 was 5.0 μM (FIG. 1, “Group 2”), 2.5 μM (FIG. 1, “Group 3”), and 1.2 μM (FIG. 1, “Group 4”). Treatment lasted 8 hours, followed by RNA isolation using a QIAGEN Miniprep Kit. RNA was measured at 260/280 nm using NanoDrop2000 and normalized to 250 ng. cDNA preparation was done using QIAGEN First Strand kit.

[4] = v. untreated control, concentration not given

## CCCCCCCCNCCC[C@@H](C)[C@H]1CC[C@H]2[C@@H]3[C@H](OCCCN)C[C@@H]4C[C@H](OCCCN)CC[C@]4(C)[C@H]3C[C@H](OCCCN)[C@]12C [CSA-13]
[1]
  ALP (alkaline phosphatase) activity normalized to viable cell number: Comparable results

## CCCCCN(CCCCC)CCC[C@@H](C)[C@H]1CC[C@H]2[C@@H]3[C@H](OCCCN)C[C@@H]4C[C@H](OCCCN)CC[C@]4(C)[C@H]3C[C@H](OCCCN)[C@]12C [CSA-90]
[2]; 25 μg with 10 μg rhBMP-2, mice quadriceps, 3 weeks, microCT, parametric P=0.02, nonparametric P<0.01
  increase in bone volume (BV) vs rhBMP-2 alone: statistically significant
[2]; 250 μg alone without rhBMP-2, muscle pouch model, mice, 3 weeks, microCT (FIG. 7)
  bone formation, CSA alone: appears to also result in bone formation
[2]; 250 μg with 10 μg rhBMP-2, mice quadriceps, 3 weeks, microCT, parametric P<0.01, nonparametric P<0.01
  increase in bone volume (BV) vs rhBMP-2 alone: statistically significant
[2]; mice quadriceps, 10 μg rhBMP-2 plus CSA-90, 3 weeks, microCT, vs rhBMP-2 alone
  increase of ectopic bone volume induced by rhBMP-2 treatment: about 3.2 fold
[3]; 5 μM concentration
  up-regulation of BMP-2 mRNA expression: ~6 fold
[3]; [4]
  Fold Up-Regulation ACTB (Actin, beta): −4.1173 fold
  Fold Up-Regulation AHSG (Alpha-2-HS-glycoprotein): 1.4077 fold
  Fold Up-Regulation ALPL (Alkaline phosphatase, liver/bone/kidney): −5.8397 fold
  Fold Up-Regulation AMBN (Ameloblastin): −1.0298 fold
  Fold Up-Regulation AMELY (Amelogenin, Y-linked): −1.008 fold
  Fold Up-Regulation ANXA5 (Annexin A5): −1.0287 fold
  Fold Up-Regulation BGLAP (Bone gamma-carboxyglutamate (gla) protein): −1.1336 fold
  Fold Up-Regulation BGN (Biglycan): −2.2679 fold
  Fold Up-Regulation BMP-1 (Bone morphogenetic protein 1): −1.4719 fold
  Fold Up-Regulation BMP-2 (Bone morphogenetic protein 2): 6.7295 fold
  Fold Up-Regulation BMP-3 (Bone morphogenetic protein 3): 1.3888 fold
  Fold Up-Regulation BMP-4 (Bone morphogenetic protein 4): −3.7558 fold
  Fold Up-Regulation BMP-5 (Bone morphogenetic protein 5): 2.1036 fold
  Fold Up-Regulation BMP-6 (Bone morphogenetic protein 6): 14.8826 fold
  Fold Up-Regulation CALCR (CALCITONIN RECEPTOR): 2.1036 fold
  Fold Up-Regulation CD36 (CD36 molecule, thrombospondin receptor): −2.3276 fold
  Fold Up-Regulation CDH11 (Cadherin 11, type 2, OB-cadherin): −2.6119 fold
  Fold Up-Regulation COL1A1 (Collagen, type I, alpha 1): −1.9589 fold
  Fold Up-Regulation COL1A2 (Collagen, type I, alpha 2): −1.525 fold
  Fold Up-Regulation COL2A1 (Collagen, type II, alpha 1): 1.0817 fold
  Fold Up-Regulation COL3A1 (Collagen, type III, alpha 1): 1.1521 fold
  Fold Up-Regulation COL4A3 (Collagen, type IV, alpha 3): −9.7105 fold
  Fold Up-Regulation COL5A1 (Collagen, type V, alpha 1): −1.603 fold
  Fold Up-Regulation COL10A1 (Collagen, type X, alpha 1): 1.0439 fold
  Fold Up-Regulation COL11A1 (Collagen, type XI, alpha 1): −2.8055 fold
  Fold Up-Regulation COL12A1 (Collagen, type XII, alpha 1): −1.366 fold
  Fold Up-Regulation COL14A1 (Collagen, type XIV, alpha 1): 1.0661 fold
  Fold Up-Regulation COL15A1 (Collagen, type XV, alpha 1): 1.1217 fold
  Fold Up-Regulation COMP (Cartilage oligomeric matrix protein): 1.5909 fold
  Fold Up-Regulation CSF2 (Colony stimulating factor 2): 3.2231 fold
  Fold Up-Regulation CSF3 (Colony stimulating factor 3): 1.3504 fold
  Fold Up-Regulation CTSK (Cathepsin K): 1.0843 fold
  Fold Up-Regulation DMP1 (Dentin matrix acidic phosphoprotein 1): 2.1036 fold
  Fold Up-Regulation DSPP (Dentin sialophosphoprotein): 2.1036 fold
  Fold Up-Regulation EGF (Epidermal growth factor): −1.3949 fold
  Fold Up-Regulation EGFR (Epidermal growth factor receptor): 1.0894 fold
  Fold Up-Regulation ENAM (Enamelin): 2.1036 fold
  Fold Up-Regulation FGF1 (Fibroblast growth factor 1): −1.7551 fold
  Fold Up-Regulation FGF2 (Fibroblast growth factor 2): −1.0498 fold
  Fold Up-Regulation FGF3 (Fibroblast growth factor 3): −1.5325 fold
  Fold Up-Regulation FGFR1 (Fibroblast growth factor receptor 1): −1.5568 fold
  Fold Up-Regulation FGFR2 (Fibroblast growth factor receptor 2): −3.1961 fold
  Fold Up-Regulation FLT1 (Fms-related tyrosine kinase 1): −2.1823 fold
  Fold Up-Regulation FN1 (Fibronectin 1): −1.4863 fold
  Fold Up-Regulation GAPDH (Glyceraldehyde-3-phosphate dehydrogenase): −1.0501 fold
  Fold Up-Regulation GDF10 (Growth differentiation factor 10): 2.1036 fold
  Fold Up-Regulation ICAM1 (Intercellular adhesion molecule 1): 1.3786 fold
  Fold Up-Regulation IGF1 (Insulin-like growth factor 1): 15.8816 fold
  Fold Up-Regulation IGF1R (Insulin-like growth factor 1 receptor): 1.6854 fold
  Fold Up-Regulation IGF2 (Insulin-like growth factor 2): −2.6412 fold
  Fold Up-Regulation ITGA1 (Integrin, alpha 1): 1.2807 fold
  Fold Up-Regulation ITGA2 (Integrin, alpha 2): 1.6174 fold
  Fold Up-Regulation ITGA3 (Integrin, alpha 3): −2.1172 fold
  Fold Up-Regulation ITGAM (Integrin, alpha M): 2.5974 fold
  Fold Up-Regulation ITGB1 (Integrin, beta 1): −1.3007 fold
  Fold Up-Regulation MMP2 (Matrix metallopeptidase 2): −1.6002 fold
  Fold Up-Regulation MMP8 (Matrix metallopeptidase 8): −1.0189 fold
  Fold Up-Regulation MMP9 (Matrix metallopeptidase 9): 2.0169 fold
  Fold Up-Regulation MMP10 (Matrix metallopeptidase 10): 2.1233 fold
  Fold Up-Regulation MSX1 (Msh homeobox 1): −1.1393 fold
  Fold Up-Regulation NFKB1 (Nuclear factor of kappa light polypeptide gene enhancer in B-cells 1): 1.0365 fold
  Fold Up-Regulation PDGFA (Platelet-derived growth factor alpha polypeptide): −1.1381 fold
  Fold Up-Regulation PHEX (Phosphate regulating endopeptidase homolog, X-linked): −2.0881 fold
  Fold Up-Regulation RUNX2 (Runt-related transcription factor 2): −1.1998 fold
  Fold Up-Regulation SCARB1 (Scavenger receptor class B, member 1): −2.7137 fold
  Fold Up-Regulation SERPIN H1 (Serpin peptidase inhibitor, clade H, member 1): −2.6434 fold
  Fold Up-Regulation SMAD1 (SMAD family member 1): −1.2436 fold
  Fold Up-Regulation SMAD2 (SMAD family member 2): −1.2016 fold
  Fold Up-Regulation SMAD3 (SMAD family member 3): −2.8152 fold
  Fold Up-Regulation SMAD4 (SMAD family member 4): −1.0529 fold
  Fold Up-Regulation STATH (Statherin): 2.5891 fold
  Fold Up-Regulation TFIP11 (Tuftelin interacting protein 11): −1.6592 fold
  Fold Up-Regulation TGFB1 (Transforming growth factor, beta 1): −1.3031 fold
  Fold Up-Regulation TGFB2 (Transforming growth factor, beta 2): 1.619 fold
  Fold Up-Regulation TGFB3 (Transforming growth factor, beta 3): 3.2853 fold
  Fold Up-Regulation TGFBR1 (Transforming growth factor, beta receptor 1): 1.5219 fold
  Fold Up-Regulation TGFBR2 (Transforming growth factor, beta receptor II): −1.7799 fold
  Fold Up-Regulation TNF (Tumor necrosis factor): 2.7072 fold
  Fold Up-Regulation TUFT1 (Tuftelin 1): −4.5431 fold
  Fold Up-Regulation TWIST1 (Twist homolog 1): −1.6813 fold
  Fold Up-Regulation VCAM1 (Vascular cell adhesion molecule 1): −1.1098 fold
  Fold Up-Regulation VDR (Vitamin D (1,25-dihydroxyvitamin D3) receptor): −6.6007 fold
  Fold Up-Regulation VEGFA (Vascular endothelial growth factor A): 1.3548 fold
  Fold Up-Regulation VEGFB (Vascular endothelial growth factor B): 1.2749 fold
